# According to patent publication EP2921486B1, “Compositions and methods for treating beta-amyloid related diseases” (American Life Science Pharmaceuticals, Inc., priority 2009, dated 2011):
# Read-outs that look alike come from different tables or passages of the source.
# Experiments:
# Aβ(40) and Aβ(42) = experiment: Brain, CSF and plasma Aβ ELISA after once-a-day oral gavage for one week (Example 9); format: in vivo; details: guinea pigs
# Text: (§1) Guinea Pigs. Guinea Pigs (Harley strain, average weight 400 g corresponding to animals about 6 weeks old) were obtained from Charles River (Wilmington, MA). The animals were given free access to standard chow and water before and during the experiment.
# (§2) Gavage Formulation: Delivering a drug by gavage offers the advantage of accurate dosing but is traumatic and thus only suitable for relatively short dosing periods. Gavage delivery was used for the guinea pig work. E64d was resuspended in DMSO at indicated concentrations (see Figures, and below) and guinea pigs were gavaged daily using a feeding tube. Vehicle control animals were provided DMSO alone.
# (§3) Guinea Pig Gavage Dosing: Guinea pigs were gavaged daily for one week. Guinea pigs were lightly anesthetized with isoflurane prior to gavaging. 250 µl of compound solution was gavaged daily per animal and animals were sacrificed 4 hrs after the last dosing.
# brain cathepsin B = experiment: Brain cathepsin B activity after once-a-day oral gavage (fluorometric kit); format: in vivo; details: guinea pigs, once-a-day oral administration
# Text: as §1, §2, §3
# The brain cathepsin B activity in guinea pigs was measured as follows: Cathepsin B activity was determined using a fluorometric assay kit from Abeam, Inc. (catalog ab65300; Cambridge, MA) as described by the manufacturer.
# brain BACE1 = experiment: Brain BACE1 activity after once-a-day oral gavage (fluorometric kit); format: in vivo; details: guinea pigs, once-a-day oral administration
# Text: as §1, §2, §3
# The brain BRACE1 activity in guinea pigs was measured by Beta secretase activity was determined using a fluorometric assay kit from Abcam (ab65357) as described by the manufacturer.
# transgenic APPlon mice = experiment: Morris water maze test, spatial memory deficit; format: in vivo; details: E64d-doped chow for 1 month or 3 months, either age group
# Text: Figure 16 is not descriptive of the claimed invention. Figure 16 graphically illustrates data showing the effects of AB-007 (E64d, loxistatin)-doped chow on the spatial memory deficit that develops in transgenic APPlon (London APP) mice, see above description, and e.g. Hook, et al. (2008) supra. The Morris water maze test was used to measure the latency period, which is the time it takes an animal to swim to a submerged and not visible platform after having been previously trained as to the location of that platform. The longer the latency period, the poorer the spatial memory. Two groups of animals were evaluated, young and old mice.
# [1] = 5-week stability test at 60°C; format: physicochemical; details: read-out: compound remaining
# [2] = system: brain Aβ40 and brain Aβ42; details: guinea pig, oral 10 mg/kg/day, 7 days
# brain Aβ(40) and Aβ(42) = details: for Summary Aβ 40 Mean % Control / Summary Aβ 42 Mean % Control: 1 & 3 month feeding; for Aβ 40 Difference / Aβ 42 Difference: control minus treated; for Aβ 40 % Control / Aβ 42 % Control: per cent reduction in Aβ
# [3] = cited from earlier work
# [4] = cited from earlier work; remark: listed apart in the source
# [5] = high oral doses (500 mg/kg and 1 g/kg), cited from earlier work
# [6] = maximal intravenous or oral doses, rats; cited from earlier work
# [7] = healthy human volunteers, oral, about 5 mg/kg/day, single or continuous 1 week; cited from earlier work
# [8] = rats, cited from earlier work
# [9] = oral, dogs; cited from earlier work
# [10] = Old mice, 1 month feeding E64d doped chow
# [11] = Old mice, 3 month feeding E64d doped chow
# [12] = Young mice, 1 month feeding E64d doped chow
# [13] = Young mice, 3 month feeding E64d doped chow
smiles,measurement,setting,value
"CCOC(=O)[C@H]1O[C@@H]1C(=O)N[C@@H](CC(C)C)C(=O)NCCC(C)C (relative stereo) [AB-007, (2S,3S)-trans-epoxysuccinyl-L-leucyl-amido-3-methylbutane ethyl ester]",CSF Aβ,Aβ(40) and Aβ(42),dose response reduction
same,CSF Aβ(42),Aβ(40) and Aβ(42),dose response reduction
same,brain Aβ(40),Aβ(40) and Aβ(42),dose response reduction
same,brain Aβ(42),Aβ(40) and Aβ(42),dose response reduction
same,plasma Aβ(40),Aβ(40) and Aβ(42),dose response reduction
same,plasma Aβ(42),Aβ(40) and Aβ(42),dose response reduction
same,brain cathepsin B activity,brain cathepsin B,dose response reduction
same,brain BACE1 activity,brain BACE1,increase
same,mean latency period relative to age-matched controls,transgenic APPlon mice,significantly reduced
same,remaining at 840 h,[1],99%
same,reduction of brain Aβ40 relative to vehicle treated controls,[2],42%
same,reduction of brain Aβ42 relative to vehicle treated controls,[2],42%
same,Summary Aβ 40 Mean % Control,brain Aβ(40) and Aβ(42); All Ages,64%
same,Summary Aβ 42 Mean % Control,brain Aβ(40) and Aβ(42); All Ages,52%
same,Summary Aβ 40 Mean % Control,brain Aβ(40) and Aβ(42); Old mice,65%
same,Summary Aβ 42 Mean % Control,brain Aβ(40) and Aβ(42); Old mice,42%
same,Aβ 40 Mean treated,brain Aβ(40) and Aβ(42); [10],87.1
same,Aβ 42 Mean treated,brain Aβ(40) and Aβ(42); [10],31.9
same,Aβ 40 Difference,"brain Aβ(40) and Aβ(42); Old mice, 1 month feeding",142.9
same,Aβ 42 Difference,"brain Aβ(40) and Aβ(42); Old mice, 1 month feeding",26.6
same,Aβ 40 % Control,"brain Aβ(40) and Aβ(42); Old mice, 1 month feeding",62%
same,Aβ 42 % Control,"brain Aβ(40) and Aβ(42); Old mice, 1 month feeding",45%
same,Aβ 40 Mean treated,brain Aβ(40) and Aβ(42); [11],91.2
same,Aβ 42 Mean treated,brain Aβ(40) and Aβ(42); [11],61.3
same,Aβ 40 Difference,"brain Aβ(40) and Aβ(42); Old mice, 3 month feeding",195.3
same,Aβ 42 Difference,"brain Aβ(40) and Aβ(42); Old mice, 3 month feeding",38.5
same,Aβ 40 % Control,"brain Aβ(40) and Aβ(42); Old mice, 3 month feeding",68%
same,Aβ 42 % Control,"brain Aβ(40) and Aβ(42); Old mice, 3 month feeding",39%
same,Summary Aβ 40 Mean % Control,brain Aβ(40) and Aβ(42); Young mice,60%
same,Summary Aβ 42 Mean % Control,brain Aβ(40) and Aβ(42); Young mice,62%
same,Aβ 40 Mean treated,brain Aβ(40) and Aβ(42); [12],47.7
same,Aβ 42 Mean treated,brain Aβ(40) and Aβ(42); [12],5.5
same,Aβ 40 Difference,"brain Aβ(40) and Aβ(42); Young mice, 1 month feeding",47.5
same,Aβ 42 Difference,"brain Aβ(40) and Aβ(42); Young mice, 1 month feeding",6
same,Aβ 40 % Control,"brain Aβ(40) and Aβ(42); Young mice, 1 month feeding",50%
same,Aβ 42 % Control,"brain Aβ(40) and Aβ(42); Young mice, 1 month feeding",52%
same,Aβ 40 Mean treated,brain Aβ(40) and Aβ(42); [13],38.7
same,Aβ 42 Mean treated,brain Aβ(40) and Aβ(42); [13],4.5
same,Aβ 40 Difference,"brain Aβ(40) and Aβ(42); Young mice, 3 month feeding",87.4
same,Aβ 42 Difference,"brain Aβ(40) and Aβ(42); Young mice, 3 month feeding",11.7
same,Aβ 40 % Control,"brain Aβ(40) and Aβ(42); Young mice, 3 month feeding",69%
same,Aβ 42 % Control,"brain Aβ(40) and Aβ(42); Young mice, 3 month feeding",72%
same,drug accumulation,[3]; humans,No drug accumulation
same,total urinary excretion rate,[3]; humans,about 30%
same,conversion in the gut to E64c (loxistatin acid),[3]; oral,rapidly and completely converted
same,oral dose absorbed,[4]; primary absorption site small intestine,about 60%
same,"concentration in all other organs, including the brain",[4]; radioactive AB-007,corresponding to the plasma concentration or concentrations lower than plasma
same,kidneys concentration relative to plasma concentration,[4]; radioactive AB-007,~12 times
same,liver concentration relative to plasma concentration,[4]; radioactive AB-007,about 25 times
same,time of maximum tissue concentration after administration,[4]; radioactive AB-007,0.5 h
same,effect on the cardiovascular system,[5],no effect
same,effect on the central nervous system,"[5]; sedation, mild inhibition of pentetrazol-induced seizure",depress the central nervous system
same,influence on vision or hearing,[6],do not influence
same,"hematological tests, blood chemistry, urinalyses",[7],no changes
same,"pulse, blood pressure, body temperature, grip force, electrocardiogram, physician observations",[7],no change
same,LD50,[8]; oral,"over 10,000 mg/kg"
same,hepatic injury,[8]; does not occur in other species,hepatic injury seen in rats
same,LD50,[9],"> 5,000 mg/kg"
[2H]C([2H])([2H])C([2H])(CCNC(=O)[C@H](CC(C)C)NC(=O)[C@H]1O[C@@H]1C(=O)OCC)C([2H])([2H])[2H] [Compound E64d7],CSF Aβ,Aβ(40) and Aβ(42),dose response reduction
same,CSF Aβ(42),Aβ(40) and Aβ(42),dose response reduction
same,brain Aβ(40),Aβ(40) and Aβ(42),dose response reduction
same,brain Aβ(42),Aβ(40) and Aβ(42),dose response reduction
same,plasma Aβ(40),Aβ(40) and Aβ(42),dose response reduction
same,plasma Aβ(42),Aβ(40) and Aβ(42),dose response reduction
same,brain cathepsin B activity,brain cathepsin B,dose response reduction
same,brain BACE1 activity,brain BACE1,increase
